Patent publication US12465603B2, “Phthalazinone based modulators for the treatment of disease” (Soley Therapeutics, Inc., priority 2022, dated 2025)

Legend:
[1] = tested on: A2058 (ATCC, CRL-11147) cells; assay: Cell viability assay (Cell Titre Glo, 72 hours) in A2058 cells; assay type: cell-based; conditions: Homo sapiens
Procedure, shortened: (§1)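 10-point dose response, top final concentration 30 μM, 1 in 3 dilutions; 5000 cells per well added directly to compound. Incubated 72 hours at 37° C, 5% CO2, then viability read by Cell Titre Glo luminescence and IC50 curves fitted.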

[2] = tested on: PA1 (ECACC, 90013101) cells; assay: Cell viability assay (Cell Titre Glo, 72 hours) in PA1 cells; assay type: cell-based; conditions: Homo sapiens, PA-1
Procedure, shortened: as §1

Compound	IC50 [1] [nM]	IC50 [2] [nM]
COc1ncc(Cl)cc1N1CCN(C(=O)c2nn(C)c(=O)c3ccccc23)CC1 [Compound 23]	≤ 1000	≤ 1000
Cc1nc2c(N3CCN(C(=O)c4nn(C)c(=O)c5ccccc45)CC3)cccc2o1 [Compound 53]	1000 to 10000	1000 to 10000
Cc1cc(C#N)cc(N2CCN(C(=O)c3nn(C)c(=O)c4ccccc34)CC2)c1 [Compound 68]	≤ 1000	≤ 1000
Cn1nc(C(=O)N2CCN(c3cc(F)cc(Cl)c3)CC2)c2cnccc2c1=O [Compound 222]	≤ 1000	≤ 1000
Cn1nc(C(=O)N2CCN(c3cccc(F)c3)CC2)c2ccccc2c1=O [Compound 33]	≤ 1000	≤ 1000
O=C(c1nn(C2COC2)c(=O)c2ccccc12)N1CCN(c2ccccc2)CC1 [Compound 8]	> 20000	> 20000
